# Reference: ChEMBL document CHEMBL3430912, “GSK Tres Cantos Anti-Kinetoplastid Screening (TCAKS) Data”
# Legend:
# Trypanosoma cruzi [1] = assay: (§1) GSK_TCAKS: pIC50 Trypanosoma cruzi Imaging: Infected Cells. […] Cells were then washed once with PBS before infection. T. cruzi trypomastigotes, collected at days 5 to 8 after infection from LLC-MK2 parasite infected cultures, were allowed to swim out for 4h at 37C from a centrifuged pellet (2,500 rpm/10 min/room temperature). Trypomastigotes were then collected and counted in a CASY Cell Counter. Trypomastigotes, in supplemented DMEM, were added to H9c2 cultures in a multiplicity of infection of 1 and incubated for 18 h. Cells were washed once with PBS before incubation of the infected H9c2 monolayer with trypsin (Life-Technologies) to detach cells from the flask. Cells were counted in a CASY Cell Counter using a 150 um capillary and their density set at 5 * 10^4 cells per mL in supplemented assay DMEM. Infected H9c2 were dispensed into 384-well poly-lysine coated assay plates at 50uL per well using a Multidrop Combi dispenser. After seeding them, the plates were incubated at 37C, 5% CO2 for 72h. Cultures were then fixed and stained by addition of 50 uL of a solution containing 8% formaldehyde and 4 uM DRAQ5 DNA dye (BioStatus, UK) per well. […] Five images were collected per well for reliable statistical analysis. Automated image analysis was performed with a script developed on Acapella High Content Imaging and Analysis Software (PerkinElmer). Output: percentage of infected cells per well as a second infection marker.; type: functional, organism-based, Rattus norvegicus; conditions: H9c2, 4 h
# Trypanosoma cruzi [2] = assay: GSK_TCAKS: pIC50 Trypanosoma cruzi viability assay using beta-GAL activity. This assay was run at single shot at 5uM compound concentration per well. The biological reagents consisted of NIH-3T3 host cells and trypomastigotes parasitic cells; both cell types were set to a 3.3 * 10^5 cells/mL dilution in assay DMEM by means of a CASY cell counter device using a 60um capillary. 6 uL of the mixture were dispensed per well (about 1 * 10^3 host-cells and 1 * 10^3 parasites) with a Multidrop Combi dispenser. […] In all wells, the percentage of DMSO never exceeded 0.5%. Plates incubated for four days at 37C, 5% CO2. The substrate used for the assay fluorescence intensity (FLINT) readout was resorufin-beta-D-galactopiranoside (Sigma-Aldrich) at 5uM per well. It was diluted in PBS supplemented with the soft detergent Igepal (Fluka).; type: functional, organism-based, Mus musculus; conditions: Tulahuen, NIH3T3
# Leishmania donovani [3] = assay: (§2) GSK_TCAKS: pIC50 Leishmania donovani Imaging: Amastigotes/Macrophages. Assay plates (384-well) were prepared by adding 250nL of compound to each well. For single shot assay, the final compound concentration was 5 uM. […] Automated image analysis was performed with a script developed on Acapella High Content Imaging and Analysis Software (PerkinElmer). Output: Average number of amastigotes per macrophage cell were reported for each well.; type: functional, organism-based, Homo sapiens; conditions: THP-1
# [4] = target: Sterol 14-alpha demethylase (Trypanosoma cruzi (strain CL Brener), UniProt Q7Z1V1); assay: GSK_TCAKS: pIC50 CYP51 from Trypanosoma cruzi.; type: functional
# Trypanosoma cruzi [5] = assay: GSK_TCAKS: pIC50 Trypanosoma cruzi Imaging: Amastigotes/Cell. […] Cells were then washed once with PBS before infection. T. cruzi trypomastigotes, collected at days 5 to 8 after infection from LLC-MK2 parasite infected cultures, were allowed to swim out for 4h at 37C from a centrifuged pellet (2,500 rpm/10 min/room temperature). Trypomastigotes were then collected and counted in a CASY Cell Counter. Trypomastigotes, in supplemented DMEM, were added to H9c2 cultures in a multiplicity of infection of 1 and incubated for 18 h. Cells were washed once with PBS before incubation of the infected H9c2 monolayer with trypsin (Life-Technologies) to detach cells from the flask. Cells were counted in a CASY Cell Counter using a 150 um capillary and their density set at 5 * 10^4 cells per mL in supplemented assay DMEM. Infected H9c2 were dispensed into 384-well poly-lysine coated assay plates at 50uL per well using a Multidrop Combi dispenser. After seeding them, the plates were incubated at 37C, 5% CO2 for 72h. Cultures were then fixed and stained by addition of 50 uL of a solution containing 8% formaldehyde and 4 uM DRAQ5 DNA dye (BioStatus, UK) per well. […] Five images were collected per well for reliable statistical analysis. Automated image analysis was performed with a script developed on Acapella High Content Imaging and Analysis Software (PerkinElmer). Output: number of amastigotes per cell as infection level measurement.; type: functional, organism-based, Rattus norvegicus; conditions: H9c2, 4 h
# [6] = tested on: Trypanosoma brucei brucei; assay: GSK_TCAKS: pIC50 Trypanosoma brucei viability assay using luminiscence. Assay plates (1536-well) were prepared. T. brucei cultures were harvested and counted in a CASY cell counter. A parasite suspension was prepared at a final concentration of 5 * 10^4 cells/mL in complete HMI9 medium and 6uL was dispensed to all wells containing compounds using a Multidrop Combi dispenser. 6uL of HMI9 media with 0.4% DMSO were dispensed to control columns. Plates were incubated for 24 h at 37C, 5% CO2 then tempered for 10 min at room temperature. ATP content was quantified by adding 4 uL of CellTiter-Glo Reagent (Promega) according to the manufacturer's instructions. Luminescence was measured using a ViewLux.; type: functional, organism-based; conditions: Lister 427, CASY
# [7] = GSK_TCAKS: pIC50 HepG2 human cell line viability assay using luminiscence. […] Seeding density was checked to ensure that new mono-layers were not more than 50% confluent at the time of harvesting. Cell suspension was added to 500 mL of the same medium at a final density of 1.2 * 10^5 cells/mL. This cell suspension was dispensed (25 uL, 3000 cells per well) into 384-well clear-bottom plates using a Multidrop Combi dispenser. Prior to addition of the cell suspension, the screening compounds (250 nL) were pre-dispensed into the plates with an Echo liquid handler. Plates were incubated for 48 h at 37C, 5% CO2. After incubation, plates equilibrated at room temperature for 30 min before proceeding to develop the luminescent signal. The signal developer, CellTiter-Glo Reagent, was allowed to equilibrate at room temperature for 30 min and added to the plates (25uL per well) using a Multidrop Combi dispenser. Plates were left for 10 min at room temperature for stabilization and then read using a ViewLux.; type: toxicity, cell-based
# Leishmania donovani [8] = assay: as §2, with “THP-1 Host Macrophages.” for “Amastigotes/Macrophages.”, “THP-1” for “Average number of amastigotes per macrophage”, “cell count” for “cell”; type: functional, organism-based, Homo sapiens
# [9] = tested on: Trypanosoma brucei brucei; assay: GSK_TCAKS: pIC50 Trypanosoma brucei viability assay using fluorescence intensity. Assay plates (1536-well) were prepared by dispensing 25nL of compound solution per well using an Echo acoustic dispenser (Labcyte).; type: functional, organism-based; conditions: Lister 427, 2 h
# Leishmania donovani [10] = assay: as §2, with “Infected Macrophages.” for “Amastigotes/Macrophages.”, “Percent” for “Average number”, “infected” for “amastigotes per”, “cells” for “cell”; type: functional, organism-based, Homo sapiens; conditions: THP-1
# Trypanosoma cruzi [11] = assay: as §1, with “H2C9” for “Trypanosoma cruzi”, “H9c2 Host Cardiomyocytes.” for “Infected Cells.”, “Number” for “percentage”, “H9c2 Host Cardiomyocytes nuclei to determine drug-related cytotoxicity.” for “infected cells per well as a second infection marker.”; type: functional, organism-based, Rattus norvegicus; conditions: H9c2, 4 h
# Leishmania donovani [12] = assay: GSK_TCAKS: pIC50 Leishmania donovani viability assay using fluorescence intensity. Assay plates (1536-well) were prepared by adding 30nL per well of compound. For single shot assay, the final compound concentration was 5uM. […] Briefly, eGFP LdBOB axenic amastigotes were harvested, fixed and counted in a CASY cell counter (Roche-Applied Science). A final concentration of 1.5 * 10^5 cells per well were prepared in amastigote media containing 500 U/mL penicillin/streptomycin (Invitrogen) and 6uL was dispensed to each experimental well using a Multidrop Combi dispenser (Thermo Scientific). 6uL of assay media was dispensed to control columns used as reference for 100% compound response. Following incubation for 72 h at 37C, 5% CO2, 2 uL of resazurin was added to each well at a final concentration of 0.5 mM in phosphate buffered saline (PBS) with IGEPAL (Sigma-Aldrich), 0.05% (v/v).; type: functional, organism-based
# Sequence of Sterol 14-alpha demethylase (Q7Z1V1 whole entry): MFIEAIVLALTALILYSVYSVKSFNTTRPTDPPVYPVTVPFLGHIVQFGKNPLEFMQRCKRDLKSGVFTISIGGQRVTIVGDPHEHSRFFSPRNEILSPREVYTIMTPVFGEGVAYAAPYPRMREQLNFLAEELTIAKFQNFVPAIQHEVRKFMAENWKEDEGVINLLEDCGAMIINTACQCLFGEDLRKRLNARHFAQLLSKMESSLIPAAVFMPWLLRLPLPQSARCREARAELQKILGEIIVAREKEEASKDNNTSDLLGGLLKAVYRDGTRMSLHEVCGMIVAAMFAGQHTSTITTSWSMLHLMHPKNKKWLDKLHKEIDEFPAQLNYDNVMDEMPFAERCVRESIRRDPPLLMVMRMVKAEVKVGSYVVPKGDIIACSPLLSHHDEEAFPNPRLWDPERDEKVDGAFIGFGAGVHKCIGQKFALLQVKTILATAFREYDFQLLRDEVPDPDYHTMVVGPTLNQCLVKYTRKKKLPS
SMILES,IC50 (Trypanosoma cruzi [1]) [µM],IC50 (Trypanosoma cruzi [2]) [µM],IC50 (Leishmania donovani [3]) [µM],IC50 [4] [µM],IC50 (Trypanosoma cruzi [5]) [µM],IC50 [6] [µM],IC50 at 48 h [7] [µM],IC50 (Leishmania donovani [8]) [µM],IC50 [9] [µM],IC50 (Leishmania donovani [10]) [µM],IC50 (Trypanosoma cruzi [11]) [µM],IC50 (Leishmania donovani [12]) [µM]
COc1ccccc1-n1c(SCC(=O)Nc2ccc3c(c2)OCO3)nc2c(c1=O)SCC2,15.8,39.8,5.01,63.1,7.94,> 39.8,> 100,> 50.1,> 39.8,7.94,> 50.1,10
Nc1nc(-c2ccccn2)nc(N)c1Cc1c(F)cccc1Cl,2,1.58,1,> 100,1.58,2,20,31.6,2.51,1.26,1.26,2.51
CC(c1ccccn1)N(C)Cc1nc2ccccc2n1C(C)C (stereo unspecified),6.31,1.58,2,31.6,2,10,25.1,15.8,12.6,3.16,> 50.1,10
CC1CCCCN1C(=O)NCCc1coc(-c2ccc(F)cc2)n1 (stereo unspecified),0.316,0.398,> 50.1,> 100,0.316,0.158,> 100,> 50.1,0.126,> 50.1,> 50.1,> 50.1
c1ccc(-c2nc(NC3CCCC3)c3ccccc3n2)nc1,0.794,2,1.26,> 100,2,6.31,15.8,20,6.31,2,0.501,3.98
COc1cc(F)c2ncc(F)c(CCN3CC[C@H](NCc4cc5c(cn4)OCS5)[C@@H](O)C3)c2c1,0.251,0.398,12.6,31.6,0.2,0.501,50.1,15.8,0.251,15.8,> 50.1,25.1
CN(Cc1nc2ccc(C(=O)NCC3CCCCC3)cc2[nH]1)C1CCCc2cccnc21 (stereo unspecified),0.631,0.501,0.398,39.8,0.316,0.316,15.8,6.31,0.794,0.501,5.01,3.16
COc1ccc2ncc(Cl)c(CCN3CC[C@@H](NCc4cc5c(cn4)OCS5)[C@H](O)C3)c2n1,0.0794,0.126,7.94,1,0.0631,0.398,50.1,25.1,0.316,12.6,25.1,10
